Read-outs that look alike come from different tables or passages of the source.
Legend:
[1] = pH over time of 0.1 M aqueous solutions of polyhydroxy-lactones (reaction with water to free acid); assay type: physicochemical; details: for pH in aqueous solution: 0.1 M; for pH: 0.1 M (1.78%) aqueous solution
Description: In general, because the formulation is to be applied to the skin, it is preferred to have a pH of about three to eight, to minimize irritation, and/or may be in a controlled release formulation, as discussed below. In some cases, an adjustment of the pH of the composition may be desirable because of the tendency of some polyhydroxy-lactones to react with water molecules and form free acid molecules, thereby altering the pH of the overall composition over time until the equilibrium of the reaction has been reached. This lowered pH may cause discomfort to the patient, as the compositions may irritate or sting the skin area when applied. The reaction with water is evidenced by a continued decrease in pH of the solution. As is know in the art, a freshly prepared gluconolactone 1% aqueous solution has pH 3.6. The pH changes to 2.5 after 2 hours. See, The Merck Index, 13th Edition, #4470. […]

[2] = 1% aqueous solution, cited from earlier work

O=C1O[C@H]([C@@H](O)CO)C(O)=C1O [Control, ascorbic acid, reference compound]
pH in aqueous solution ([1]; 1 hour): 2.1 | pH in aqueous solution ([1]; 6 hours): 2.1 | pH in aqueous solution ([1]; 24 hours): 2.1 | pH in aqueous solution ([1]; 48 hours): 2.1 | pH in aqueous solution ([1]; 72 hours): 2.1 | pH in aqueous solution ([1]; fresh): 2.1

O=C1OC[C@@H](O)[C@H]1O [D-erythronolactone]
pH in aqueous solution ([1]; 1 hour): 6.3 | pH in aqueous solution ([1]; 6 hours): 6.2 | pH in aqueous solution ([1]; 24 hours): 5.5 | pH in aqueous solution ([1]; 48 hours): 3.2 | pH in aqueous solution ([1]; 72 hours): 3.1 | pH in aqueous solution ([1]; fresh): 6.3

O=C1O[C@@H]([C@H](O)CO)[C@H](O)[C@H]1O [D-galactonolactone]
pH in aqueous solution ([1]; 1 hour): 5.0 | pH in aqueous solution ([1]; 6 hours): 3.9 | pH in aqueous solution ([1]; 24 hours): 3.2 | pH in aqueous solution ([1]; 48 hours): 2.6 | pH in aqueous solution ([1]; 72 hours): 2.4 | pH in aqueous solution ([1]; fresh): 5.1

O=C1O[C@@H]([C@H](O)[C@H](O)CO)[C@@H](O)C1O (stereo partly drawn) [D-glucoheptonolactone]
pH in aqueous solution ([1]; 1 hour): 5.6 | pH in aqueous solution ([1]; 6 hours): 3.9 | pH in aqueous solution ([1]; 24 hours): 3.1 | pH in aqueous solution ([1]; 48 hours): 2.5 | pH in aqueous solution ([1]; 72 hours): 2.3 | pH in aqueous solution ([1]; fresh): 5.6

O=C1O[C@H](CO)[C@@H](O)[C@H](O)[C@H]1O [D-gluconolactone]
pH ([1]; 0 minutes): 2.1 | pH ([1]; 60 minutes): 2.0 | pH ([1]; 360 minutes): 1.9 | pH ([1]; 4320 minutes): 1.8 | pH in aqueous solution ([1]; 1 hour): 2.0 | pH in aqueous solution ([1]; 6 hours): 1.9 | pH in aqueous solution ([1]; 24 hours): 1.9 | pH in aqueous solution ([1]; 48 hours): 1.9 | pH in aqueous solution ([1]; 72 hours): 1.8 | pH in aqueous solution ([1]; fresh): 2.1 | pH ([2]; after 2 hours): 2.5 | pH ([2]; freshly prepared): 3.6

O=C[C@H](O)[C@H]1OC(=O)[C@@H](O)[C@H]1O [D-glucuronolactone]
pH in aqueous solution ([1]; 1 hour): 5.7 | pH in aqueous solution ([1]; 6 hours): 4.8 | pH in aqueous solution ([1]; 24 hours): 3.4 | pH in aqueous solution ([1]; 48 hours): 2.6 | pH in aqueous solution ([1]; 72 hours): 2.3 | pH in aqueous solution ([1]; fresh): 5.7

O=C1O[C@@H](C(O)CO)[C@H](O)C1O (stereo partly drawn) [D-gulonolactone]
pH in aqueous solution ([1]; 1 hour): 5.8 | pH in aqueous solution ([1]; 6 hours): 4.6 | pH in aqueous solution ([1]; 24 hours): 3.5 | pH in aqueous solution ([1]; 48 hours): 3.0 | pH in aqueous solution ([1]; 72 hours): 2.7 | pH in aqueous solution ([1]; fresh): 6.2

CC1(C)COC(=O)C1O [D-pantolactone]
pH in aqueous solution ([1]; 1 hour): 6.5 | pH in aqueous solution ([1]; 6 hours): 6.4 | pH in aqueous solution ([1]; 24 hours): 5.9 | pH in aqueous solution ([1]; 48 hours): 5.7 | pH in aqueous solution ([1]; 72 hours): 5.7 | pH in aqueous solution ([1]; fresh): 6.5

O=C1O[C@H](CO)[C@@H](O)[C@H]1O [D-ribonolactone]
pH in aqueous solution ([1]; 1 hour): 6.1 | pH in aqueous solution ([1]; 6 hours): 5.9 | pH in aqueous solution ([1]; 24 hours): 3.9 | pH in aqueous solution ([1]; 48 hours): 2.8 | pH in aqueous solution ([1]; 72 hours): 2.6 | pH in aqueous solution ([1]; fresh): 6.2

Reference: US20040220259A1, “Topical treatment of dermatological disorders associated with reactive or dilated blood vessels” (priority 2003, published 2004)
